Laboratory results taken from ChEMBL document CHEMBL1201862, “PubChem BioAssay data set” (2004).
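Briefly, cells in 96-well plates were exposed to five compound concentrations for 48 h, and endpoints were estimated by linear interpolation. Abbreviation: GI50, concentration required for 50% inhibition of growth.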 Calls of active or inactive are those of the source. Rule as the data show it: active = GI50 up to about 1.1 µM and inactive = higher.

Tests used:
Assay in all cases: DTP human tumour cell line panel, 48 h
A498 = test system: A498
A549 = test system: A549
HL-60 = test system: HL-60
HT-29 = test system: HT-29
K562 = test system: K562
LOX IMVI = test system: LOX IMVI
LXFL 529 = test system: LXFL 529
OVCAR-3 = test system: OVCAR-3
OVCAR-4 = test system: OVCAR-4
OVCAR-5 = test system: OVCAR-5
RPMI-8226 = test system: RPMI-8226
SK-MEL-28 = test system: SK-MEL-28
SK-OV-3 = test system: SK-OV-3
SN12C = test system: SN12C
SR = test system: SR
U-251 = test system: U-251
UO-31 = test system: UO-31
DU-145 = test system: DU-145
MDA-MB-231 = test system: MDA-MB-231
MDA-N = test system: MDA-N

Structure (SMILES) | GI50 (A498) | GI50 (A549) | GI50 (HL-60) | GI50 (HT-29) | GI50 (K562) | GI50 (LOX IMVI) | GI50 (LXFL 529) | GI50 (OVCAR-3) | GI50 (OVCAR-4) | GI50 (OVCAR-5) | GI50 (RPMI-8226) | GI50 (SK-MEL-28) | GI50 (SK-OV-3) | GI50 (SN12C) | GI50 (SR) | GI50 (U-251) | GI50 (UO-31) | GI50 (DU-145) | GI50 (MDA-MB-231) | GI50 (MDA-N)
CC1=C(c2cc(C(=O)Nc3cc(C)ccc3C)nc(N)n2)Sc2ccccc2N1 | > 100 µM (inactive) | > 100 µM (inactive) | > 100 µM (inactive) | > 100 µM (inactive) | > 100 µM (inactive) | > 100 µM (inactive) | > 100 µM (inactive) | > 100 µM (inactive) | > 100 µM (inactive) | > 100 µM (inactive) | > 100 µM (inactive) | > 100 µM (inactive) | > 100 µM (inactive) | > 100 µM (inactive) | 65.8 µM (inactive) | > 100 µM (inactive) | > 100 µM (inactive) | – | – | –
Cc1ccc([N+](=O)[O-])cc1NC(=O)/C(=N/NC(=S)NN)C1SC(=S)NC1=O (stereo not given) | > 100 µM (inactive) | > 100 µM (inactive) | 78.3 µM (inactive) | > 100 µM (inactive) | > 100 µM (inactive) | > 100 µM (inactive) | > 100 µM (inactive) | – | > 100 µM (inactive) | > 100 µM (inactive) | > 100 µM (inactive) | > 100 µM (inactive) | > 100 µM (inactive) | > 100 µM (inactive) | > 100 µM (inactive) | > 100 µM (inactive) | > 100 µM (inactive) | – | – | –
C=C1C(=O)O[C@@H]2C[C@@H](C)[C@@H]3C=CC(=O)[C@@]3(C)[C@@H](O)[C@H]12 [HELENALIN] | 1.86 µM (inactive) | 2.9 µM (inactive) | 0.525 µM (active) | 1.71 µM (inactive) | 0.622 µM (active) | 0.574 µM (active) | 0.493 µM (active) | 1.52 µM (inactive) | 2.77 µM (inactive) | 1.71 µM (inactive) | 0.532 µM (active) | 1.76 µM (inactive) | – | 1.36 µM (inactive) | 0.594 µM (active) | 0.769 µM (active) | 1.68 µM (inactive) | 3.79 µM (inactive) | 3.95 µM (inactive) | 2.08 µM (inactive)
COC(=O)c1c(OC(=O)c2ccccc2)noc1CC(=O)OC1C=CCCC1 (stereo not given) | 68.5 µM (inactive) | > 100 µM (inactive) | 35.1 µM (inactive) | – | 72.6 µM (inactive) | – | 58.7 µM (inactive) | > 100 µM (inactive) | > 100 µM (inactive) | – | > 100 µM (inactive) | > 100 µM (inactive) | > 100 µM (inactive) | > 100 µM (inactive) | > 100 µM (inactive) | > 100 µM (inactive) | 66.4 µM (inactive) | – | – | –
C/N=C1\CC2c3cc(OC)c(OC)cc3CCN2C2=C1C(=O)CC(C)(C)C2 (stereo not given) | > 100 µM (inactive) | > 100 µM (inactive) | > 100 µM (inactive) | > 100 µM (inactive) | – | > 100 µM (inactive) | > 100 µM (inactive) | > 100 µM (inactive) | – | > 100 µM (inactive) | – | > 100 µM (inactive) | – | > 100 µM (inactive) | > 100 µM (inactive) | > 100 µM (inactive) | > 100 µM (inactive) | – | – | –
C=CCc1cc(OC)c2c(c1)C(OC)CC(c1ccc(OC)c(OC)c1)O2 (stereo not given) | > 100 µM (inactive) | > 100 µM (inactive) | 75 µM (inactive) | > 100 µM (inactive) | 61.8 µM (inactive) | > 100 µM (inactive) | > 100 µM (inactive) | > 100 µM (inactive) | > 100 µM (inactive) | > 100 µM (inactive) | 38 µM (inactive) | > 100 µM (inactive) | > 100 µM (inactive) | > 100 µM (inactive) | – | > 100 µM (inactive) | 42.3 µM (inactive) | – | – | –
N#Cc1ccccc1NC(=O)C(=O)C1NC(=S)NC1=O (stereo not given) | > 100 µM (inactive) | > 100 µM (inactive) | > 100 µM (inactive) | > 100 µM (inactive) | > 100 µM (inactive) | > 100 µM (inactive) | > 100 µM (inactive) | > 100 µM (inactive) | > 100 µM (inactive) | > 100 µM (inactive) | > 100 µM (inactive) | > 100 µM (inactive) | – | > 100 µM (inactive) | > 100 µM (inactive) | > 100 µM (inactive) | – | – | – | –
CC(C)=C1CCC(CN2CCOCC2)C1=O (stereo not given) | 33.7 µM (inactive) | 20.4 µM (inactive) | 4.12 µM (inactive) | 8.65 µM (inactive) | 1.72 µM (inactive) | 19.9 µM (inactive) | 2.38 µM (inactive) | 8.18 µM (inactive) | 8.18 µM (inactive) | 18.2 µM (inactive) | 0.953 µM (active) | 14.9 µM (inactive) | > 100 µM (inactive) | 8.59 µM (inactive) | 3.57 µM (inactive) | 32.1 µM (inactive) | 18.1 µM (inactive) | 16.4 µM (inactive) | 17.4 µM (inactive) | 19.1 µM (inactive)
CC1=NOC(=O)/C1=C/c1ccccc1O | – | > 100 µM (inactive) | > 100 µM (inactive) | > 100 µM (inactive) | > 100 µM (inactive) | > 100 µM (inactive) | > 100 µM (inactive) | > 100 µM (inactive) | > 100 µM (inactive) | > 100 µM (inactive) | – | > 100 µM (inactive) | > 100 µM (inactive) | > 100 µM (inactive) | > 100 µM (inactive) | > 100 µM (inactive) | > 100 µM (inactive) | – | – | –
CCn1c2c(c3ccccc31)[C@@H](c1ccc(Cl)cc1)CC1C(=O)N(c3ccccc3)C(=O)C21 (stereo not given in full) | 69.7 µM (inactive) | > 100 µM (inactive) | 16.4 µM (inactive) | 65.5 µM (inactive) | 77.3 µM (inactive) | > 100 µM (inactive) | > 100 µM (inactive) | 55 µM (inactive) | > 100 µM (inactive) | > 100 µM (inactive) | 65 µM (inactive) | > 100 µM (inactive) | > 100 µM (inactive) | 75.5 µM (inactive) | 12.8 µM (inactive) | 52.6 µM (inactive) | > 100 µM (inactive) | – | – | –
CC1(C)CC(=O)c2c(oc3cc(O)c(O)cc23)C1 | 39 µM (inactive) | 38 µM (inactive) | 16 µM (inactive) | 53 µM (inactive) | 24.7 µM (inactive) | 17.1 µM (inactive) | 24.7 µM (inactive) | – | 19.5 µM (inactive) | 15.5 µM (inactive) | 17.5 µM (inactive) | – | > 100 µM (inactive) | 39.5 µM (inactive) | 18.8 µM (inactive) | 33 µM (inactive) | 37.7 µM (inactive) | – | – | –
COC(=O)Nc1nc2cc(Br)ccc2[nH]1 | 67.8 µM (inactive) | 50.8 µM (inactive) | 13.3 µM (inactive) | 16 µM (inactive) | 17.6 µM (inactive) | > 100 µM (inactive) | 47.2 µM (inactive) | 28.5 µM (inactive) | > 100 µM (inactive) | 60.1 µM (inactive) | 51.9 µM (inactive) | > 100 µM (inactive) | 27.5 µM (inactive) | > 100 µM (inactive) | 6.44 µM (inactive) | 22.8 µM (inactive) | > 100 µM (inactive) | – | – | –
C[n+]1c(Cl)cn2c3nc4ccccc4nc3c([O-])c(C#N)c21 | > 62.7 µM (inactive) | > 100 µM (inactive) | > 100 µM (inactive) | > 100 µM (inactive) | > 100 µM (inactive) | > 100 µM (inactive) | > 100 µM (inactive) | > 100 µM (inactive) | > 59 µM (inactive) | > 10 µM (inactive) | > 100 µM (inactive) | > 100 µM (inactive) | > 100 µM (inactive) | > 100 µM (inactive) | > 74.8 µM (inactive) | > 100 µM (inactive) | > 100 µM (inactive) | > 100 µM (inactive) | > 100 µM (inactive) | > 100 µM (inactive)
CCOc1ccccc1/N=C(/NC(=O)CC)SC | > 10 µM (inactive) | > 10 µM (inactive) | > 10 µM (inactive) | > 10 µM (inactive) | > 10 µM (inactive) | > 10 µM (inactive) | > 10 µM (inactive) | > 10 µM (inactive) | 85.1 µM (inactive) | > 10 µM (inactive) | 95.9 µM (inactive) | > 10 µM (inactive) | > 10 µM (inactive) | 65.8 µM (inactive) | > 10 µM (inactive) | > 10 µM (inactive) | > 10 µM (inactive) | – | – | –
CC[C@@H]1C[C@H]2CC3c4[nH]c5ccc(O)cc5c4CCN(C2)C31 | – | > 100 µM (inactive) | > 100 µM (inactive) | > 100 µM (inactive) | 99.5 µM (inactive) | > 100 µM (inactive) | > 100 µM (inactive) | > 100 µM (inactive) | – | > 100 µM (inactive) | > 100 µM (inactive) | > 100 µM (inactive) | – | > 100 µM (inactive) | > 100 µM (inactive) | > 100 µM (inactive) | > 100 µM (inactive) | – | – | –
Cc1ccn2c(c1)nc1nc3ccccc3nc12 | – | > 100 µM (inactive) | > 100 µM (inactive) | > 100 µM (inactive) | > 100 µM (inactive) | > 100 µM (inactive) | > 100 µM (inactive) | > 100 µM (inactive) | > 100 µM (inactive) | > 100 µM (inactive) | > 100 µM (inactive) | > 100 µM (inactive) | 59.6 µM (inactive) | – | > 100 µM (inactive) | > 100 µM (inactive) | > 100 µM (inactive) | – | – | –
